Source: US20130158075A1, “HETEROCYCLIC COMPOUNDS AS DGAT1 INHIBITORS” (PIRAMAL ENTERPRISES LIMITED, priority 2010, published 2013)
Structures can show the parent of a compound that is named as a salt.

Target: T1, hDGAT1 (Homo sapiens, UniProt O75907)
T1 construct: made in house; host or cells: Sf9 insect cells (baculovirus); microsomal fraction
T1 sequence (O75907 1-488): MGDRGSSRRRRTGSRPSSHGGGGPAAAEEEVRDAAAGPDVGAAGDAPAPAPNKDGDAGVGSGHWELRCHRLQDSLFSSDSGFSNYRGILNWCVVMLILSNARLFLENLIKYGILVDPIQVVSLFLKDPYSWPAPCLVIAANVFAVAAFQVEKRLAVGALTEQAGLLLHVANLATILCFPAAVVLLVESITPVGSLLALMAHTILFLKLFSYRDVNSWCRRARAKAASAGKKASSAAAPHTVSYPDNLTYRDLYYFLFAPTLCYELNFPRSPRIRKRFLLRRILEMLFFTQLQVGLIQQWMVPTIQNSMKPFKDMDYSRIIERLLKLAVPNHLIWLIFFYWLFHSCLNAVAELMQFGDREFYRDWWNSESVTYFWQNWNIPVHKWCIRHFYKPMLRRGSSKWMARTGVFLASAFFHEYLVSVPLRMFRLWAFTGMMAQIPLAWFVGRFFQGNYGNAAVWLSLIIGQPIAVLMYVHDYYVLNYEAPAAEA
Test: In-vitro DGAT1 assay with hDGAT1 microsomes from Sf9 cells (14C oleoyl CoA, scintillation counting)
Assay type: biochemical
Conditions: at 1 μM
How it was run: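 Radiolabelled triglyceride formation was measured: heptane extracts were scintillation-counted after a 10-min, 37 °C reaction stopped with alkaline ethanol. Enzyme was human DGAT1 in baculovirus-infected Sf9 microsomal membranes; substrates were 14C oleoyl-CoA plus dioleoylglycerol. Runs were duplicated, and inhibition (%) was related to nM compound concentration.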

Compound	Percentage inhibition of hDGAT1
O=C(Nc1ccc(-c2noc([C@H]3CC[C@H](C(=O)O)CC3)n2)cc1)c1ccc(-c2ccccc2)cc1 [Example 231, (1r,4r)-4-(3-(4-Biphenyl-4-ylcarboxamidophenyl)-1,2,4-oxadiazol-5-yl)cyclo hexanecarboxylic acid]	+ (20-50% Inhibition)
4-(5-(4-(3-(2-Fluorophenyl)-2-methylguanidino)phenyl)thiazol-2-yl)-2,2-dimethyl butanoic acid [Example 271]	+ (20-50% Inhibition)

Same assay, conditions: read-out: Percentage inhibition of hDGAT1

inhibition at 1 µM [%]	Compound
20 to 50	CC(C)(CCc1ncc(-c2ccc(NC(=O)NCCN3CCCCC3)cc2)s1)C(=O)O [Example 257, 2,2-Dimethyl-4-(5-(4-(3-(2-(piperidin-1-yl)ethyl)ureido)phenyl)thiazol-2-yl)butanoic acid]
> 50	O=C(O)CN1CCC(c2ncc(-c3ccc(NC(=O)Nc4ccccc4Cl)cc3)s2)CC1 [Example 429, 2-(4-(5-(4-(3-(2-Chlorophenyl)ureido)phenyl)thiazol-2-yl)piperidin-1-yl)acetic acid]
> 50	CC(C)(CCc1ncc(-c2ccc(NC(=O)Nc3cc(F)cc(F)c3)cc2)s1)C(=O)O [Example 235, 4-(5-(4-(3-(3,5-Difluorophenyl)ureido)phenyl)thiazol-2-yl)-2,2-dimethyl butanoic acid]
> 50	O=C(Nc1ccc(Oc2ccccc2)cc1)Nc1ccc(-c2cnc(C3CCC(C(=O)O)CC3)s2)cc1 (stereo not shown) [Example 170, 4-(5-(4-(3-(4-Phenoxyphenyl)ureido)phenyl)thiazol-2-yl)cyclohexane carboxylic acid]
> 50	O=C(Nc1ccc(Cl)cc1)Nc1ccc(-c2cnc(C3CCC(C(=O)O)CC3)s2)cc1 (stereo not shown) [Example 146, 4-(5-(4-(3-(4-Chlorophenyl)ureido)phenyl)thiazol-2-yl)cyclohexane carboxylic acid]
> 50	CC(C)(O)C1CCC(c2ncc(-c3ccc(NC(=O)Nc4ccc(F)cc4F)cc3)s2)CC1 (stereo not shown) [Example 406, 1-(2,4-Difluorophenyl)-3-(4-(2-(4-(2-hydroxypropan-2-yl)cyclohexyl)thiazol-5-yl)phenyl)urea]
20 to 50	CC(C)(CCc1ncc(-c2ccc(NC(=O)N3CCC(F)(F)CC3)cc2)s1)C(=O)O [Example 261, 4-(5-(4-(4,4-Difluoropiperidine-1-carboxamido)phenyl)thiazol-2-yl)-2,2-dimethyl butanoic acid]
20 to 50	O=C(Nc1ccc(-c2cnc(C3CCNCC3)s2)cc1)Nc1ccccc1F [Example 476, 1-(2-Fluorophenyl)-3-(4-(2-(piperidin-4-yl)thiazol-5-yl)phenyl)urea hydrochloride]
> 50	O=C(O)CCc1ncc(-c2ccc(NC(=O)NC3CCCCC3)cc2)s1 [Example 11, 3-(5-(4-(3-Cyclohexylureido)phenyl)thiazol-2-yl)propanoic acid]
20 to 50	COc1ccc(S(=O)(=O)Nc2ccc(-c3cnc(CCC(=O)O)s3)cc2)c(OC)c1 [Example 25, 3-(5-(4-(2,4-Dimethoxyphenylsulfonamido)phenyl)thiazol-2-yl)propanoic acid]
> 50	O=C(O)CC1CCC(c2ncc(-c3ccc(NC(=O)Nc4cc(F)c(F)c(F)c4)cc3)s2)CC1 (stereo not shown) [Example 368, 2-(4-(5-(4-(3-(3,4,5-Trifluorophenyl)ureido)phenyl)thiazol-2-yl)cyclohexyl)acetic acid]
20 to 50	CS(=O)(=O)N1CCC(c2ncc(-c3ccc(NC(=O)Nc4ccccc4Cl)cc3)s2)CC1 [Example 490, 1-(2-Chlorophenyl)-3-(4-(2-(1-(methylsulfonyl)piperidin-4-yl)thiazol-5-yl)phenyl)urea]
> 50	CC(C)(CCc1ncc(-c2ccc(NC(=O)NCc3ccccc3)cc2)s1)C(=O)O [Example 259, 4-(5-(4-(3-Benzylureido)phenyl)thiazol-2-yl)-2,2-dimethylbutanoic acid]
> 50	CC(C)(N)C1CCC(c2ncc(-c3ccc(NC(=O)Nc4ccc(F)cc4F)cc3)s2)CC1 (stereo not shown) [Example 589, 1-(4-(2-(4-(2-Aminopropan-2-yl)cyclohexyl)thiazol-5-yl)phenyl)-3-(2,4-difluorophenyl)urea]
> 50	Cc1noc(CC2CCC(c3ncc(-c4ccc(NC(=O)Nc5ccccc5Cl)cc4)s3)CC2)n1 (stereo not shown) [Example 390, 1-(2-Chlorophenyl)-3-(4-(2-(4-((3-methyl-1,2,4-oxadiazol-5-yl)methyl)cyclohexyl)thiazol-5-yl)phenyl)urea]
> 50	Cc1noc(CC2CCC(c3ncc(-c4ccc(NC(=O)Nc5ccccc5F)cc4)s3)CC2)n1 (stereo not shown) [Example 391, 1-(2-Fluorophenyl)-3-(4-(2-(4-((3-methyl-1,2,4-oxadiazol-5-yl)methyl)cyclohexyl)thiazol-5-yl)phenyl)urea]

inhibition at 1 µM [%]	Compound
20 to 50	O=C(O)CCCc1nnc(-c2ccc(NC(=O)Nc3ccc(F)cc3F)cc2)o1 [Example 300, 4-(5-(4-(3-(2,4-Difluorophenyl)ureido)phenyl)-1,3,4-oxadiazol-2-yl)butanoic acid]
> 50	COc1ccc(NC(=O)Nc2ccc(-c3cnc(CC(C)(C)C(=O)O)s3)cc2)cc1 [Example 36, 3-(5-(4-(3-(4-Methoxyphenyl)ureido)phenyl)thiazol-2-yl)-2,2-dimethyl propanoic acid]
> 50	CC(C)(Cc1ncc(-c2ccc(NC(=O)Nc3ccc(Cl)cc3Oc3ccccc3)cc2)s1)C(=O)O [Example 40, 3-(5-(4-(3-(4-Chloro-2-phenoxyphenyl)ureido)phenyl)thiazol-2-yl)-2,2-dimethylpropanoic acid]
> 50	O=C(Nc1ccc(-c2cnc(CNS(=O)(=O)C(F)(F)F)s2)cc1)Nc1c(F)cc(F)cc1F [Example 547, 1,1,1-Trifluoro-N-((5-(4-(3-(2,4,6-trifluorophenyl)ureido)phenyl)thiazol-2-yl)methyl)methanesulfonamide]
> 50	Cc1ccc(NC(=O)Nc2ccc(-c3cnc(C4CCC(C(=O)O)CC4)s3)cc2)cc1 (stereo not shown) [Example 136, 4-(5-(4-(3-p-Tolylureido)phenyl)thiazol-2-yl)cyclohexanecarboxylic acid]
> 50	O=C(Nc1ccc(-c2cnc(C3CCC(C(=O)O)CC3)s2)cc1)Nc1cccc(F)c1 (stereo not shown) [Example 178, 4-(5-(4-(3-(3-Fluorophenyl)ureido)phenyl)thiazol-2-yl)cyclohexanecarboxylic acid]
> 50	O=C(Nc1ccc(-c2cnc(C34CC5CC(CC(C(=O)O)(C5)C3)C4)s2)cc1)Nc1ccccc1F [Example 502, 3-(5-(4-(3-(2-Fluorophenyl)ureido)phenyl)thiazol-2-yl)adamantane-1-carboxylic acid]
20 to 50	O=C(Nc1ccc(-c2cnc(C3CCN(S(=O)(=O)C(F)(F)F)CC3)s2)cc1)Nc1cc(F)c(F)cc1F [Example 487, 1-(4-(2-(1-((Trifluoromethyl)sulfonyl)piperidin-4-yl)thiazol-5-yl)phenyl)-3-(2,4,5-trifluorophenyl)urea]
> 50	O=C(Nc1ccc(-c2cnc(CNS(=O)(=O)C(F)(F)F)s2)cc1)Nc1cc(F)c(F)cc1F [Example 546, 1,1,1-Trifluoro-N-((5-(4-(3-(2,4,5-trifluorophenyl)ureido)phenyl)thiazol-2-yl)methyl)methanesulfonamide]
> 50	O=C(Nc1ccc(-c2cnc(C3CCC(C(=O)O)CC3)s2)cc1)Nc1ccc2c(c1)OCO2 (stereo not shown) [Example 156, 4-(5-(4-(3-Benzo[d][1,3]-dioxol-5-ylureido)phenyl)thiazol-2-yl)cyclohexane carboxylic acid]
> 50	O=C(O)CCc1ncc(-c2ccc(NC(=O)Nc3cccc(C(F)(F)F)c3)cc2)s1 [Example 7, 3-(5-(4-(3-(3-(Trifluoromethyl)phenyl)ureido)phenyl)thiazol-2-yl)propanoic acid]
> 50	CC(C)(NS(=O)(=O)C(F)(F)F)c1ncc(-c2ccc(NC(=O)Nc3cc(F)c(F)cc3F)cc2)s1 [Example 565, 1,1,1-Trifluoro-N-(2-(5-(4-(3-(2,4,5-trifluorophenyl)ureido)phenyl)thiazol-2-yl)propan-2-yl)methanesulfonamide]
> 50	O=C(Nc1ccc(-c2cnc(C3CCC(C(=O)O)CC3)s2)cc1)Nc1ccccc1F (stereo not shown) [Example 140, 4-(5-(4-(3-(2-Fluorophenyl)ureido)phenyl)thiazol-2-yl)cyclohexanecarboxylic acid]
20 to 50	O=C(Nc1ccc(-c2cnc(C3CCC(C(=O)O)CC3)s2)cc1)c1ccccc1Cl (stereo not shown) [Example 196, 4-(5-(4-(2-Chlorobenzamido)phenyl)thiazol-2-yl)cyclohexanecarboxylic acid]
> 50	Cc1ccc(NC(=O)Nc2ccc(-c3cnc(CCCC(=O)O)s3)cc2)cc1C [Example 53, 4-(5-(4-(3-(3,4-Dimethylphenyl)ureido)phenyl)thiazol-2-yl)butanoic acid]
> 50	CC(C)(CCc1ncc(-c2ccc(NC(=O)Nc3ccc(Cl)cc3Oc3ccccc3)cc2)s1)C(=O)O [Example 92, 4-(5-(4-(3-(4-Chloro-2-phenoxyphenyl)ureido)phenyl)thiazol-2-yl)-2,2-dimethylbutanoic acid]
